Reference: patent US20070191345A1, “3-((Hetero)arylsulfonyl)-8-'(aminoalkyl)oxyquinolines as 5-ht6 receptor antagonists for the treatment of cns disorders” (GLAXO GROUP LIMITED, priority 2004, published 2007)
Where a name gives a salt, the structure may show the parent alone. Read-outs that look alike come from different tables or passages of the source.

Target: T1, human cloned 5-HT6 receptors (Homo sapiens, UniProt P50406)
T1 construct: expressed in transfected cells; host or cells: HeLa cells expressing the cloned 5-HT6 receptor (washed membranes)
Assay: Cyclase assay (cAMP production in washed membranes of HeLa 5HT6 cells, 5-HT stimulated)
Format: biochemical
Protocol: Compounds of the invention may be tested for in vitro biological activity in accordance with the following cyclase assay:
0.5 μl of test compound in 100% dimethylsulfoxide (DMSO) was added to a white, solid 384 well assay plate (for dose response measurements the top of the concentration range is 7.5 μM final). 10 μl of washed membranes of HeLa 5HT6 cells (for preparation see WO 98/27081) in basic buffer (50 mM HEPES pH 7.4 (KOH), 10 mM MgCl2, 100 mM NaCl, 1 μl/ml 3-isobutyl-1-methylxanthine (IBMX) (Sigma-Aldrich)) was added to all wells followed by 10 μl 2×ATP buffer (100 μl/ml ATP and 1 μl/ml 3-Isobutyl-1-methylxanthine (IBMX) (Sigma-Aldrich)) with 5-HT (at a concentration equivalent to a dose response of 4×EC50). The resultant mixture was then incubated at room temperature for 30-45 minutes to allow cAMP production.
cAMP production was then measured using the DiscoveRx™ HitHunter™ chemiluminescence cAMP assay kit (DiscoveRx Corporation, 42501 Albrae Street, Fremont, Calif. 94538; Product Code: 90-0004L) or any other suitable cAMP measurement assay.
IC50 values were estimated from arbitrary designated unit (ADU) measurements from a Perkin Elmer Viewlux instrument using a four parameter logistic curve fit within EXCEL (Bowen, W. P. and Jerman, J. C. (1995), Nonlinear regression using spreadsheets. Trends in Pharmacol. Sci., 16, 413-417). Functional Ki values were calculated using the method of Cheng, Y. C. and Prussof, W. H. (Biochemical Pharmacol (1973) 22 3099-3108). pIC50 and fpKi are the negative log10 of the molar IC50 and functional Ki respectively.

[1] = membranes of HeLa 5HT6 cells, 5-HT at 4×EC50, functional Ki calculated by Cheng-Prusoff from IC50, read-out: fpKi (functional pKi, antagonist potency for the 5-HT6 receptor) (converted)

T1 sequence (P50406 whole entry): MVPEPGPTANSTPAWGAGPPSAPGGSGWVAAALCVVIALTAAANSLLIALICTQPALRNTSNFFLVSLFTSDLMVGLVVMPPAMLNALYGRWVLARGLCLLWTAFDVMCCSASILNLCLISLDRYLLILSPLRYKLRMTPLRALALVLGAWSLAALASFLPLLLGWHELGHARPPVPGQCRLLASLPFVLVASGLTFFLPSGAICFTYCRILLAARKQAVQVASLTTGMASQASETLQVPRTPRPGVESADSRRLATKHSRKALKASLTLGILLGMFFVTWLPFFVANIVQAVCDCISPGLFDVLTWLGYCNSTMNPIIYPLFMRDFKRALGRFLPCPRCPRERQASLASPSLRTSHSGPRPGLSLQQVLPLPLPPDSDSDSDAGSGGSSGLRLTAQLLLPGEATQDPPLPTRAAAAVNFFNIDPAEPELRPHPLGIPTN

Compound	Ki [1] [nM]	Ki [nM]
O=S(=O)(c1ccccc1)c1cnc2c(OC[C@@H]3CCCN3)cccc2c1 [Example E3, 3-(Phenylsulfonyl)-8-{[(2S)-2-pyrrolidinylmethyl]oxy}quinoline, hydrochloride]	< 10	–
CN(C)CCOc1cccc2cc(S(=O)(=O)c3ccccc3)cnc12 [Example E1b, [2-(3-Phenylsulfonylquinoline-8-yloxy)ethyl]dimethylamine, hydrochloride]	< 10	–
O=S(=O)(c1ccccc1)c1cnc2c(OC[C@H]3CCCN3)cccc2c1 [Example E7, 3-(Phenylsulfonyl)-8-{[(2R)-2-pyrrolidinylmethyl]oxy}quinoline, hydrochloride]	< 10	–
O=S(=O)(c1ccccc1)c1cnc2c(OCC3COCCN3)cccc2c1 (stereo not drawn) [Example E24, 8-[(3-Morpholinylmethyl)oxy]-3-(phenylsulfonyl) quinoline, hydrochloride]	< 10	–
O=S(=O)(c1ccccc1)c1cnc2c(O[C@@H]3CCNC3)cccc2c1 [Example E5, 3-(Phenylsulfonyl)-8-[(3R)-3-pyrrolidinyloxy]quinoline, hydrochloride]	< 10	–
CN1CCC[C@H]1COc1cccc2cc(S(=O)(=O)c3ccccc3)cnc12 [Example E2b, 8-({[(2S)-1-Methyl-2-pyrrolidinyl]methyl}oxy)-3-(phenylsulfonyl) quinoline, hydrochloride]	< 10	–
CN1CC[C@@H](Oc2cccc3cc(S(=O)(=O)c4ccccc4)cnc23)C1 [Example E17, 8-[[(3R)-1-Methyl-3-pyrrolidinyl]oxy}-3-(phenylsulfonyl) quinoline, hydrochloride]	< 10	–
O=S(=O)(c1ccccc1)c1cnc2c(OCCN3CCCC3)cccc2c1 [Example E4, 3-(Phenylsulfonyl)-8-{[2-(1-pyrrolidinyl)ethyl]oxy}quinoline, hydrochloride]	< 10	–
CC(Oc1cccc2cc(S(=O)(=O)c3ccccc3)cnc12)C(C)N(C)C (stereo not drawn) [Example E6, Dimethyl(1-methyl-2-{[(3-(phenylsulfonyl)-8-quinolinyl]oxy}propyl)amine, hydrochloride]	< 10	–
CN1CCCC(Oc2cccc3cc(S(=O)(=O)c4ccccc4)cnc23)C1 (stereo not drawn) [Example E23, 8-[(1-Methyl-3-piperidinyl)oxy]-3-(phenylsulfonyl) quinoline, hydrochloride]	< 10	–
O=S(=O)(c1ccccc1)c1cnc2c(OCC3CC4CCN3CC4)cccc2c1 (stereo not drawn) [Example E22, 8-[(1-Azabicyclo[2.2.2]oct-2-ylmethyl)oxy]-3-(phenylsulfonyl) quinoline, hydrochloride]	–	< 10
O=S(=O)(c1ccccc1)c1cnc2c(OC3CCCNC3)cccc2c1 (stereo not drawn) [Example E15, 3-(Phenylsulfonyl)-8-(3-piperidinyloxy) quinoline, hydrochloride]	< 10	–
